Drawing on patent publication US11388901B2, “Herbicidal azines” (BASF SE, priority 2017, dated 2022), this text covers herbicidal activity for two molecules.

What all share (format): in vivo
Holding throughout (conditions): 250 g/ha, scale 0 to 100

For assay [1], the system named is Amaranthus retroflexus. Kind of assay: greenhouse pre-emergence herbicidal test. An excerpt: The seeds of the test plants were sown separately for each species. For the pre-emergence treatment, the active ingredients, which had been suspended or emulsified in water, were applied directly after sowing by means of finely distributing nozzles. The containers were irrigated gently to promote germination and growth and subsequently covered with transparent plastic hoods until the plants had rooted. This cover caused uniform germination of the test plants, unless this had been impaired by the active ingredients. […] The test period extended over 2 to 4 weeks. During this time, the plants were tended, and their response to the individual treatments was evaluated. Evaluation was carried out using a scale from 0 to 100. 100 means no emergence of the plants, or complete destruction of at least the aerial moieties, and 0 means no damage, or normal course of growth. A moderate herbicidal activity is given at values of at least 60, a good herbicidal activity is given at values of at least 70, and a very good herbicidal activity is given at values of at least 85. The plants used in the greenhouse experiments were of the following species: […]

For assay [2], the system named is Apera spica-venti. Kind of assay: greenhouse pre-emergence herbicidal test. The text has this:
(§1) The culture containers used were plastic flowerpots containing loamy sand with approximately 3.0% of humus as the substrate. The seeds of the test plants were sown separately for each species.
(§2) For the pre-emergence treatment, the active ingredients, which had been suspended or emulsified in water, were applied directly after sowing by means of finely distributing nozzles.
(§3) The containers were irrigated gently to promote germination and growth and subsequently covered with transparent plastic hoods until the plants had rooted. This cover caused uniform germination of the test plants, unless this had been impaired by the active ingredients.
(§4) Depending on the species, the plants were kept at 10-25° C. or 20-35° C., respectively.
(§5) The test period extended over 2 to 4 weeks. During this time, the plants were tended, and their response to the individual treatments was evaluated.
(§6) Evaluation was carried out using a scale from 0 to 100. 100 means no emergence of the plants, or complete destruction of at least the aerial moieties, and 0 means no damage, or normal course of growth. A moderate herbicidal activity is given at values of at least 60, a good herbicidal activity is given at values of at least 70, and a very good herbicidal activity is given at values of at least 85.
(§7) The plants used in the greenhouse experiments were of the following species: […]

Assay [3] deals with Setaria faberi. Briefly: greenhouse pre-emergence herbicidal test.
From the text: as §1, §2, §3, §4, §5, §6, §7

Assay [4] relates to Setaria viridis. Kind of assay: greenhouse post-emergence herbicidal test.
From the text: as §1
(§8) For the post-emergence treatment, the test plants were first grown to a height of 3 to 15 cm, depending on the plant habit, and only then treated with the active ingredients which had been suspended or emulsified in water. For this purpose, the test plants were either sown directly and grown in the same containers, or they were first grown separately as seedlings and transplanted into the test containers a few days prior to treatment.
as §4, §5, §6, §7

In assay [5] the test system is Abutilon theophrasti. Kind of assay: greenhouse post-emergence herbicidal test.
From the text: as §1, §8, §4, §5, §6, §7

Assay [6] deals with Amaranthus retroflexus. Briefly: greenhouse post-emergence herbicidal test.
From the text: as §1, §8, §4, §5, §6, §7

In assay [7] the test system is Echinocloa crus-galli. Kind of assay: greenhouse post-emergence herbicidal test.
From the text: as §1, §8, §4, §5, §6, §7

Take `Cc1ccnc(F)c1Nc1nc(N)nc(C2(F)CCCC2)n1` [Example 54]: the herbicidal activity is 100% in assay [1], 98% in assay [2], 100% in assay [3] and 80% in assay [4].
On to `CC(C)(F)c1nc(N)nc(Nc2c(F)nc(F)c(F)c2OCC(F)(F)F)n1` [Example 65], for which the herbicidal activity in assay [1] is 100%; in assay [2], 100%; in assay [5], 100%; in assay [6] it was 100%; in assay [7] it was 95%.
